The source of these data is US5462861A, “Method for improving enzyme activities with noble gases” (American Air Liquide, Chicago Research Center, priority 1993, dated 1995).

Experiment [1] has as its system isomerase enzymes. The experiment can be described thus: Isomerases, effects for the class. The experiment is classed as biochemical. Here is the method:
Solution preparation: Optimized w/v solutions are prepared by diluting the enzyme (units/ml) and the substrate (μg/ml) in appropriate buffer (optimized pH and molarity for enzymes). The solutions are used for gas experiments at once to avoid loss of activity. Various enzyme and substrate concentrations and inhibitors may be employed. Physical parameters are varied as required.
Preparation of samples: Cuvets are filled with 2 ml of substrate solution by means of a gas-tight syringe. Gas-tight serum vials are filled with enzyme and solvent. Sufficient gas is consecutively bubbled in the cuvets and serum vials, with a 1-hr wait between injections to maximize equilibration of gas. […] The amount of gas used has been measured sufficient to saturate the solution required.
Spectrophotometric time-drive, reaction rate, and kinetic analyses: cuvets and serum vials are saturated with gas 40 minutes before the run. […] Changes in the rate or final equilibrium of the reaction versus ambient air are recorded. […]
In a complete experiment, an enzyme at optimal pH and buffering salt concentration is reacted with 5 substrate concentrations in solution with noble gas at 1 atm. […] The reaction is monitored colorimetrically in a scanning spectrophotometer in real time, and the signals are treated mathematically to obtain rate and yield differences. […]

Experiment [2] deals with β-glucosidase. The experiment can be described thus: Kinetic analyses, β-glucosidase. In kind it is biochemical. Further details: Rates G5 / Rates G5, Calculated: unit not given beside the values. Here is the method:
(§1) Absorbance curve data as previously exemplified reveal differences in enzymatic activity under different gas atmospheres both in terms of yield and in terms of rate. Yield can be calculated after equilibrium is reached by comparative curve differencing, and through formal linearization and calculation--which are also necessary for rate calculations. Rate differences are calculated using commercially available computer programs (ENZFITTER, GRAFIT, ENZPACK, PEAKFIT) which transform the initial uv/vis absorbance data curve (in these examples, a power curve) into straight lines (linear regression of power curve). These lines may be expressed as a mathematical equation in which the slope is approximately the rate, and the limit Y-intercept is approximately the yield. […] The examples and figures described below represent these steps in exemplary form.
Table 1 illustrates Michaelis-Menten enzyme kinetics calculations of Vmax and Km, and the rates for each reaction. Vmax is the limiting rate, Km is the Michaelis-Menten constant.
FIG. 46 and Table 2 illustrate the same as FIG. 45 and Table 1, however, for xenon reactions. It is readily apparent that the Vmax and Km for xenon are larger.
FIG. 47, Table 3, FIG. 48 and Table 4 illustrate the first-order power curve regression rate linear transformations for the above air and xenon gassed reactions, showing an approximation to the Michaelis-Menten data, wherein the Xe/Air rate relationship is in the same ratio as above.
FIG. 49, FIG. 50 and Table 5 illustrate the same first-order rate approximation regression linearizations for all gases studied in this run.

Experiment [3] concerns tyrosinase. The experiment is described as follows: Kinetic analyses, tyrosinase. In kind it is biochemical. On the procedure: as §1
FIG. 51, Table 6, FIG. 52 and Table 7 illustrate data from the first 160 seconds of a single tyrosinase experiment expressed as power curves for air, then for xenon gassing.

Experiment [4] has as its target T1, β-D-Glucosidase (Caldicellulosiruptor saccharolyticus, UniProt P10482).
T1 construct: purchased Sigma G-0898; host or cells: E. coli
The experiment can be described thus: Immobilized enzymes: β-D-glucosidase under air or xenon. In kind it is biochemical, Caldocellum saccharolyticum. The conditions noted are these: 25° C., FIG. 44. Here is the method:
Theory: Same gases effects on either free or immobilized enzymes.
β-D-Glucosidase (SIGMA) No. G-0898)
From Caldocellum saccharolyticum: Recombinant (pfs)
Soln C1: β-D-Glucosidase solution in Na Phos. buffer pH 6.6 (25 ° C.) (2.18 Units/ml)
(For insoluble enzymes lyophilized powders, SIGMA recommends to suspend the required amount to 5-10 mg solid/ml H2 O and to allow brief hydration). We allowed a brief hydration (until solution appears)
Sample: 2 ml Soln B+0.5 ml Soln C1
CPRG: β-Glucosidase: 25° C.

Experiment [5] relates to particulate sialidase. The conditions noted are these: Sandhoff et al, FEBS Letters 1976; cited from earlier work.
Where [6] appears, read: 1st order rate equation, [S] = 60 micrograms/ml, Table 4.

T1 sequence (P10482 whole entry): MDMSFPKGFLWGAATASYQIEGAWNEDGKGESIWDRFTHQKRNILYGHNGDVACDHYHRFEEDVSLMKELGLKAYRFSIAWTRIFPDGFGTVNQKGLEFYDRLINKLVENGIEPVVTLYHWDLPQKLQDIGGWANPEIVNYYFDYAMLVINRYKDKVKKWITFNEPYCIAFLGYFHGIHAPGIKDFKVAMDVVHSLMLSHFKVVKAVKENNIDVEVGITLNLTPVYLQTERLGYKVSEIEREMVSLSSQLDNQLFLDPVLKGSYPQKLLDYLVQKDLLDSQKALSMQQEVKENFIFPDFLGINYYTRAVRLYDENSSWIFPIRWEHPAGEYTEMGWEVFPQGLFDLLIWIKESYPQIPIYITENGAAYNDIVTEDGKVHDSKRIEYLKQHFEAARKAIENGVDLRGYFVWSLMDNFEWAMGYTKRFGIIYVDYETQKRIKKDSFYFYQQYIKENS

As for `[Ar]` [Ar, argon], in experiment [1], the effect on isomerases result is “can be induced to inhibit enzyme activity at higher temperatures”.
`[Xe]` [Xe, xenon]: the “Vmax and Km compared with air” value in experiment [2] is reported as “larger”. The Limit in experiment [2] (setting [6]) is on record as 0.8382. Also, the Rate constant in experiment [2] (setting [6]) is 0.0045. Moreover, the V max in experiment [2] (Michaelis-Menten, Gas 5: Xenon, Table 2) is listed as 0.0028; in experiment [3] (Michaelis-Menten, Gas 5: Xenon, Table 7, first 160 seconds) it was 0.0001. Moreover, the “Rates G5” value in experiment [2] ([S] 20.0000) is 0.0032; in experiment [2] ([S] 40.0000) it was 0.0029; in experiment [2] ([S] 60.0000), 0.0027; in experiment [2] ([S] 80.0000), 0.0030; in experiment [2] ([S] 100.0000), 0.0029. Also, the “Rates G5, Calculated” value in experiment [2] ([S] 20.0000) is reported as 0.0032; in experiment [2] ([S] 40.0000), 0.0029; in experiment [2] ([S] 60.0000), 0.0029; in experiment [2] ([S] 80.0000) it was 0.0029; in experiment [2] ([S] 100.0000), 0.0028. In experiment [2] (power curve analysis / linearization, FIGS. 49 and 50), the “effect on β-glucosidase reaction” value is on record as “significant enhancement”. The “Y, Calculated” value is given as -0.0001 in experiment [3] ([S] 10.0000); -0.0003 in experiment [3] ([S] 20.0000); 0.0017 in experiment [3] ([S] 30.0000); 0.0004 in experiment [3] ([S] 40.0000); 0.0003 in experiment [3] ([S] 50.0000). For the same molecule, the “Y, Gas 5: Xenon (rate)” value in experiment [3] ([S] 10.0000) is 0.0007; in experiment [3] ([S] 20.0000), 0.0019; in experiment [3] ([S] 30.0000) it was 0.0019; in experiment [3] ([S] 40.0000) it was 0.0019; in experiment [3] ([S] 50.0000), 0.0004. Besides, the “effect on tyrosinase activity” value in experiment [3] (linearized rate regression and Michaelis-Menten calculations) was “strongly inhibiting tyrosinase activity”. Also, the “effect on β-glucosidase in immobilized form” value in experiment [4] was “enhancing”. For the same molecule, the “effect on activity of particulate sialidase” value in experiment [5] was “enhance the activity”.
